SMILES strings stand for the structures. Bounds are passed on as bounds.

This passage reports Dmax and DC50 results from patent US11427548B2 (Arvinas Operations, Inc., priority 2015, dated 2022).

The target of test [1] is T1, Androgen Receptor (Homo sapiens, UniProt P10275).
T1 construct: endogenous in cells; host or cells: VCaP cells
T1 sequence (P10275 1-920): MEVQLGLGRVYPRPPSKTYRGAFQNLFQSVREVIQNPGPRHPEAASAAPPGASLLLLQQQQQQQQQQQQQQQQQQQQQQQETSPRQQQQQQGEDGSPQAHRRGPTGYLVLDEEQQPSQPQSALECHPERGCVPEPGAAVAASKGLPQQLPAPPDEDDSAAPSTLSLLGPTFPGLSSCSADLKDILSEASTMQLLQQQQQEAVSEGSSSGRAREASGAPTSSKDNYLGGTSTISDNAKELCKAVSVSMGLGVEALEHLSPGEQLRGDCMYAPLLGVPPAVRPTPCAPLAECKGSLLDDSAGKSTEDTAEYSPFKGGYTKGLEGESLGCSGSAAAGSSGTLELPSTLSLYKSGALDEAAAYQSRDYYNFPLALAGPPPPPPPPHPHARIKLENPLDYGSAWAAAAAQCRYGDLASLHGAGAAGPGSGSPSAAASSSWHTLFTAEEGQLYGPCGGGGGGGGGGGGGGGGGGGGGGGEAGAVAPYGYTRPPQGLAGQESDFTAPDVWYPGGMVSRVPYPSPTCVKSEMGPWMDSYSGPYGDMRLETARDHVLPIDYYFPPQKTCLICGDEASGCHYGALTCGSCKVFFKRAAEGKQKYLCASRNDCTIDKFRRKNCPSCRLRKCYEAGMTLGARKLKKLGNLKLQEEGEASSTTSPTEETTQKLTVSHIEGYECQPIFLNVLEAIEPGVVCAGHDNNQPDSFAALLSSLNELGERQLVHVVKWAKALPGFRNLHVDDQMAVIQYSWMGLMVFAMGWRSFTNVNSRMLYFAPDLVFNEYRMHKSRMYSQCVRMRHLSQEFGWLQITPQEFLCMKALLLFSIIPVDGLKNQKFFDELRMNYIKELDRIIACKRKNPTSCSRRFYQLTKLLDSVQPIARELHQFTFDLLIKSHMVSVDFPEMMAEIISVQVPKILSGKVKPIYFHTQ
The test can be described thus: Androgen Receptor ELISA assay (PathScan AR ELISA) in VCaP cells: AR degradation, Dmax and DC50. In kind it is cell-based. The note with it: for Dmax: VCaP, read-out: VCaP Dmax (%); for DC50: read-out: VCaP DC50, concentration that caused 50% Androgen Receptor degradation, VCaP cells. In outline:
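After 24 h exposure of VCaP cells (charcoal-stripped serum, 0.1 nM R1881 agonist, 0.1% DMSO) to seven half-log compound concentrations, residual AR in lysates was measured by PathScan ELISA (TMB absorbance, 450 nm). Cells were plated at 30,000/well and grown at least 3 days beforehand.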
(ELISA stands for enzyme-linked immunosorbent assay.)

In test [2] the target is T2, Androgen Receptor (Homo sapiens, UniProt P10275+P40337, T878A).
T2 construct: Compounds have been evaluated in this assay in LNCaP and/or VCaP cells utilizing similar protocols; endogenous in cells; host or cells: LNCaP cells
T2 sequence (P10275 whole entry T878A): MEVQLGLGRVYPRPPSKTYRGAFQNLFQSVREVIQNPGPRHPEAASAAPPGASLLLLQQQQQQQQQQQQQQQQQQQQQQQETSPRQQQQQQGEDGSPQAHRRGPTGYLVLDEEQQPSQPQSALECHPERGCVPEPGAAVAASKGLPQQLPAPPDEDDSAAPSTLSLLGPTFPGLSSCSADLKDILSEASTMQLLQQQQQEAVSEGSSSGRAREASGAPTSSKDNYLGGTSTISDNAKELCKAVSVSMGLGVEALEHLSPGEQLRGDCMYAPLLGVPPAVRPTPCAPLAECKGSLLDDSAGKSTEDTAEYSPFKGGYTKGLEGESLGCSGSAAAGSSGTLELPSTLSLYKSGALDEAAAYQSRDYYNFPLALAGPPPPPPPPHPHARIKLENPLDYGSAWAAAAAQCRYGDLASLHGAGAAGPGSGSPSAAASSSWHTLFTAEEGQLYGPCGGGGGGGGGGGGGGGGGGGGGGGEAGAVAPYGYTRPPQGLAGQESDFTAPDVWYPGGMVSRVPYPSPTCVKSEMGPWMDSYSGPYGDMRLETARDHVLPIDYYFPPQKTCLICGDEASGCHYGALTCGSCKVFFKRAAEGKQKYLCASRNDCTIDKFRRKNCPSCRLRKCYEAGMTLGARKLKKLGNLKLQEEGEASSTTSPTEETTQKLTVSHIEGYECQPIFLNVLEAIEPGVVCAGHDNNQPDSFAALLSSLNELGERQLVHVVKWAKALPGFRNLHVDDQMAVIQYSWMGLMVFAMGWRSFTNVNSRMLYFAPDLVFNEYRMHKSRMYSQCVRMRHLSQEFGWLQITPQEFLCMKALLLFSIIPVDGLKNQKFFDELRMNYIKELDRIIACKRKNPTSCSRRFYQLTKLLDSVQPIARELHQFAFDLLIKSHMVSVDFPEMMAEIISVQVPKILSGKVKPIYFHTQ
T2 sequence (P40337 whole entry): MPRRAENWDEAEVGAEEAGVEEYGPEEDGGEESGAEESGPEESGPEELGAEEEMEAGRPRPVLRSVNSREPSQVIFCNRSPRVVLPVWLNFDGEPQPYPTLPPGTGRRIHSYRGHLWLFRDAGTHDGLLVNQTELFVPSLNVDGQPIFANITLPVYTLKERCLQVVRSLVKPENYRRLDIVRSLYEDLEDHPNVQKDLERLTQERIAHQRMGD
T2 sequence (Q15369 whole entry partner): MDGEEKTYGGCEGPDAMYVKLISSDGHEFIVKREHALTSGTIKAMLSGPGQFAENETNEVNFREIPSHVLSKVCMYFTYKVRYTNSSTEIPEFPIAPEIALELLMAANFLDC
T2 sequence (Q15370 whole entry partner): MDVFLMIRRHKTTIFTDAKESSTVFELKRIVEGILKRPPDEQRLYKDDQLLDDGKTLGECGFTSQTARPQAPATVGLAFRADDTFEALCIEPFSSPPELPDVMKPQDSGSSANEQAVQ
In words: Androgen Receptor ELISA assay (PathScan AR ELISA) in LNCaP cells: AR degradation, Dmax and DC50. In kind it is cell-based. The note with it: for DC50: concentration that caused 50% Androgen Receptor degradation; for Dmax: highest percentage of Androgen Receptor degradation observed.

For orientation: Dmax means the largest share of the target that was removed. One may read the DC50 as the midpoint of the concentration-degradation curve. With `Cc1ncsc1-c1ccc(CNC(=O)[C@@H]2C[C@@H](O)CN2C(=O)[C@@H](NC(=O)COCCCCCOc2ccc(-c3ccc(N4C(=S)N(c5ccc(C#N)c(C(F)(F)F)c5)C(=O)C4(C)C)cc3)cc2)C(C)(C)C)cc1` [Example 71, (2S,4R)-1-[(2S)-2-[2-({5-[4-(4-{3-[4-cyano-3-(trifluoromethyl)phenyl]-5,5-dimethyl-4-oxo-2-sulfanylideneimidazolidin-1-yl}phenyl)phenoxy]pentyl}oxy)acetamido]-3,3-dimethylbutanoyl]-4-hydroxy-N-{[4-(4-methyl-1,3-thiazol-5-yl)phenyl]methyl}pyrrolidine-2-carboxamide], at Androgen Receptor [1], the Dmax was in the range of 51 to 70% and the DC50 was less than 50 nM. On Androgen Receptor [2], this compound had a DC50 of less than 50 nM and a maximal degradation (Dmax) of more than 71%.

With `Cc1ncsc1-c1ccc(CNC(=O)[C@@H]2C[C@@H](O)CN2C(=O)[C@@H](NC(=O)COCCOCCOc2ccc(-c3ccc(N4C(=S)N(c5ccc(C#N)c(C(F)(F)F)c5)C(=O)C4(C)C)cc3F)cc2)C(C)(C)C)cc1` [Example 73, (2S,4R)-1-[(2S)-2-[2-(2-{2-[4-(4-{3-[4-cyano-3-(trifluoromethyl)phenyl]-5,5-dimethyl-4-oxo-2-sulfanylideneimidazolidin-1-yl}-2-fluorophenyl)phenoxy]ethoxy}ethoxy)acetamido]-3,3-dimethylbutanoyl]-4-hydroxy-N-{[4-(4-methyl-1,3-thiazol-5-yl)phenyl]methyl}pyrrolidine-2-carboxamide], the Dmax at Androgen Receptor [1] is 51 to 70%; on Androgen Receptor [2], more than 71%. The DC50 at Androgen Receptor [1] and on Androgen Receptor [2] was less than 50 nM throughout.

For the compound `Cc1ncsc1-c1ccc(CNC(=O)[C@@H]2C[C@@H](O)CN2C(=O)[C@@H](NC(=O)OCCCCCOc2ccc(-c3ccc(N4C(=S)N(c5ccc(C#N)c(C(F)(F)F)c5)C(=O)C4(C)C)cc3)cc2)C(C)(C)C)cc1` [Example 74, 5-[4-(4-{3-[4-cyano-3-(trifluoromethyl)phenyl]-5,5-dimethyl-4-oxo-2-sulfanylideneimidazolidin-1-yl}phenyl)phenoxy]pentyl N-[(2S)-1-[(2S,4R)-4-hydroxy-2-({[4-(4-methyl-1,3-thiazol-5-yl)phenyl]methyl}carbamoyl)pyrrolidin-1-yl]-3,3-dimethyl-1-oxobutan-2-yl]carbamate], the Dmax at Androgen Receptor [1] is 26 to 50%; at Androgen Receptor [2], more than 71%. In addition, the DC50 on Androgen Receptor [1] and on Androgen Receptor [2] was less than 50 nM each time.

In the case of `Cc1ncsc1-c1ccc(CNC(=O)[C@@H]2C[C@@H](O)CN2C(=O)[C@@H](NC(=O)COCCCOc2ccc(-c3ccc(N4C(=S)N(c5ccc(C#N)c(C(F)(F)F)c5)C(=O)C4(C)C)cc3)cc2)C(C)(C)C)cc1` [Example 77], on Androgen Receptor [1], the Dmax lay in the range of 51 to 70% and the DC50 is less than 50 nM. On Androgen Receptor [2], this compound came in with a DC50 of less than 50 nM and a Dmax of more than 71%.

Regarding `Cc1ncsc1-c1ccc(CNC(=O)[C@@H]2C[C@@H](O)CN2C(=O)[C@@H](NC(=O)COCCOc2ccc(-c3ccc(N4C(=S)N(c5ccc(C#N)c(C(F)(F)F)c5)C(=O)C4(C)C)cc3)cc2)C(C)(C)C)cc1` [Example 78], on Androgen Receptor [1], the Dmax is 51 to 70% and the DC50 was less than 50 nM. On Androgen Receptor [2], this compound yielded a DC50 of less than 50 nM and a Dmax of more than 71%.
